Assay [1] has as its system HCT116 MTAP +/+. Nature of the assay: Inhibition of cellular proliferation, 4 days, Cell Titer Glo, HCT116 MTAP+/+. The conditions noted are these: Homo sapiens, HCT-116, 96 h, IC50 score, read-out: 4 Day Relative Growth Inhibition (MTAP +/+). It is filed as cell-based. The method in brief:
(§1)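 Isogenic human colon carcinoma lines differing only in MTAP status, plated 24 h before dosing, then exposed for 4 days at 37 °C/5% CO2 to a 10-point 3-fold dilution series (0.2% DMSO final). Read-out is Cell Titer Glo ATP luminescence, blank-subtracted and normalised to in-plate DMSO control, plotted as % proliferation change versus log molar concentration.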

The subject of assay [2] is HCT116 MTAP-/-. Kind of assay: Inhibition of cellular proliferation, 4 days, Cell Titer Glo, HCT116 MTAP-/-. In kind it is cell-based. The conditions noted are these: Homo sapiens, HCT-116, 96 h, IC50 score, read-out: 4 Day Relative Growth Inhibition (MTAP −/−). A digest of the protocol: as §1
The target of assay [3] is T1, MAT2A homodimer (Homo sapiens, UniProt P31153).
T1 construct: inferred from Ni sepharose purification and imidazole elution; made in house; host or cells: Sf9 insect cells, recombinant baculovirus (Bac to Bac, pFASTBAC1 vector)
Kind of assay: Biochemical assay: inhibition of recombinant MAT2A homodimer (phosphate release, PiColorLock Gold). The conditions noted are these: MAT2A IC50 score; read-out: Enzyme Inhibition. A digest of the protocol:
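Baculovirus/Sf9-expressed, Ni-purified MAT2A at 4 μg/mL in pH 8.0 Tris/KCl/MgCl2/EDTA/BSA buffer, preincubated with compound 60 min at 25 °C. Started with ATP and L-methionine substrate mix (500 μM and 40 μM, stock in mix), 60 min at 25 °C; released phosphate by PiColorLock Gold against a phosphate standard curve.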

The subject of assay [4] is SAM in HCT116 human colon carcinoma cell line with deleted MTAP gene. Nature of the assay: Cellular assay of target engagement (SAM): SAM level by LC-MS/MS after 72 hrs. It is filed as cell-based. The conditions noted are these: HCT-116, IC50 score, read-out: Cell 72 h SAM Inhibition (MTAP −/−). The method in brief:
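MTAP-deleted HCT116 cells were seeded, then exposed 24 h later to a 10-point 3-fold compound dilution series for 72 h at 37 °C/5% CO2. They were lysed in cold 80% methanol/acetic acid containing d3-SAM internal standard. SAM was quantified by LC-MS/MS (MRM, m/z 399.2→250.1).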

A value given as a limit tells only on which side of the number the result lay.

T1 sequence (P31153 whole entry): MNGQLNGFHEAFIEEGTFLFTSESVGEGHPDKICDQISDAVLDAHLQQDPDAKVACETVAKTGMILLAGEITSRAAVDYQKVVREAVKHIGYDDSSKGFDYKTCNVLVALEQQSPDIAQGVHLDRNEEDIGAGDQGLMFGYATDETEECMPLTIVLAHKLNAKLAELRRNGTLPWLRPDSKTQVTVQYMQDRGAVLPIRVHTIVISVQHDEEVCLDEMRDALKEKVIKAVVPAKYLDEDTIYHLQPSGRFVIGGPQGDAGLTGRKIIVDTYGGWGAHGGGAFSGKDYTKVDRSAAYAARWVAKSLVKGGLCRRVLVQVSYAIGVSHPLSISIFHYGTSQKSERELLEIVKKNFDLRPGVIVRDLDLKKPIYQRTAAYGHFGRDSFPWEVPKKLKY

`CCOc1ccc2cc(-c3ccc4nnn(C)c4c3)c(=O)n(-c3ccc(OC(F)F)cc3)c2n1` [Example 209]: the IC50 in assay [1] was 100 to 1000 nM; in assay [2] it was under 100 nM; in assay [3] it was under 100 nM; in assay [4], under 100 nM.

On to `Cn1cc2cc(-c3cc4ccc(OCC(F)F)nc4n(-c4ccc(Br)cc4)c3=O)ccc2n1` [Example 318], for which the IC50 in assay [1] was 100 to 1000 nM; in assay [2] it was under 100 nM; in assay [3] it was under 100 nM; in assay [4], under 100 nM.

Regarding `Cn1cc2cc(-c3cc4ccc(OC5CC5)nc4n(-c4ccc(Cl)cc4)c3=O)ccc2n1` [Example 121], the IC50 was at least 1000 nM in assay [1], under 100 nM in assay [2], under 100 nM in assay [3] and under 100 nM in assay [4].

`[2H]C([2H])([2H])Oc1ccc(-n2c(=O)c(-c3ccc4nn(C)cc4c3)cc3ncc(OCC(F)F)nc32)cc1` [Example 344]: the IC50 in assay [1] is at least 1000 nM; in assay [2], under 100 nM; in assay [3], under 100 nM; in assay [4], under 100 nM.

Take `CCOc1ccc2cc(-c3ccc4nn(C)cc4c3)c(=O)n(-c3ccc(OC(F)(F)F)nc3)c2n1` [Example 152]: the IC50 in assay [1] is at least 1000 nM; in assay [2], under 100 nM; in assay [3], under 100 nM; in assay [4], under 100 nM.

With `COc1ccc(-c2cc3cnc(NCC(F)(F)F)nc3n(-c3ccc(CCO)cc3)c2=O)cc1` [Example 129], the IC50 in assay [1] is at least 1000 nM; in assay [2], under 100 nM; in assay [3], under 100 nM; in assay [4], under 100 nM.

On to `COc1ccc(-n2c(=O)c(-c3ccc4nn(C)cc4c3)cc3ccc(OCC(F)(F)F)nc32)cc1` [Example 313], for which the IC50 in assay [1] was at least 1000 nM; in assay [2], under 100 nM; in assay [3], under 100 nM; in assay [4] it was under 100 nM.

Consider `Cc1ccc(-n2c(=O)c(-c3ccc4nn(C)cc4c3)nc3ccc(OCC(F)(F)F)nc32)cn1` [Example 333], for which the IC50 was at least 1000 nM in assay [1], 100 to 1000 nM in assay [2], under 100 nM in assay [3] and under 100 nM in assay [4].

On to `COc1ccc(-n2c(=O)c(-c3ccc(=O)n(C)c3)cc3cnc(NCC(F)(F)F)nc32)cc1` [Example 180], for which the IC50 in assay [1] is at least 1000 nM; in assay [2], 100 to 1000 nM; in assay [3], under 100 nM; in assay [4], 100 to 1000 nM.

In the case of `CCOc1ccc2cc(-c3ccc4nn(C)cc4c3)c(=O)n(-c3ccc(C4CC4)cc3)c2n1` [Example 165], the IC50 in assay [1] is at least 1000 nM; in assay [2] it was under 100 nM; in assay [3], under 100 nM; in assay [4], under 100 nM.

Take `CCOc1ccc2cc(-c3ccc4nn(C)cc4c3)c(=O)n(-c3ccc(Cl)cc3)c2n1` [Example 138]: the IC50 in assay [1] is 100 to 1000 nM; in assay [2] it was under 100 nM; in assay [3], under 100 nM; in assay [4] it was under 100 nM.

Consider `CCOc1cc(C)c2cc(-c3ccc4nn(C)cc4c3)c(=O)n(-c3ccc(Cl)cc3)c2n1` [Example 164], for which the IC50 in assay [1] is at least 1000 nM; in assay [2] it was under 100 nM; in assay [3] it was under 100 nM; in assay [4], under 100 nM.

With `Cn1cc2cc(-c3cc4ccc(NCC(F)(F)F)nc4n(-c4ccc(OC(F)F)cc4)c3=O)ccc2n1` [Example 120], the IC50 in assay [1] was at least 1000 nM; in assay [2], under 100 nM; in assay [3] it was under 100 nM; in assay [4], under 100 nM.

Take `COc1ccc(-n2c(=O)c(-c3ccc4c(c3)OCO4)cc3cnc(NCC(F)(F)F)nc32)cc1` [Example 177]: the IC50 was at least 1000 nM in assay [1], at least 1000 nM in assay [2], under 100 nM in assay [3] and under 100 nM in assay [4].

On to `COc1ccc(-n2c(=O)c(-c3ccc4nn(C)cc4c3)nc3ccc(OCC(F)(F)F)nc32)cc1` [Example 327], for which the IC50 in assay [1] is at least 1000 nM; in assay [2], under 100 nM; in assay [3] it was under 100 nM; in assay [4], under 100 nM.

Regarding `CCOc1ccc2cc(-c3ccc4nn(C)cc4c3)c(=O)n(-c3ccc(C4CC4)nc3)c2n1` [Example 161], the IC50 in assay [1] was 100 to 1000 nM; in assay [2], under 100 nM; in assay [3], under 100 nM; in assay [4], under 100 nM.

For `CCOc1ccc2cc(-c3ccc4nn(CC(C)(C)O)cc4c3)c(=O)n(-c3ccc(OC(F)F)cc3)c2n1` [Example 207], the IC50 in assay [1] is 100 to 1000 nM; in assay [2], 100 to 1000 nM; in assay [3], under 100 nM; in assay [4], under 100 nM.

For the compound `COc1ccc(-n2c(=O)c(-c3ccc4nc(N)n(C)c4c3)cc3ccc(OCC(F)(F)F)nc32)cc1` [Example 353, 3-(2-amino-1-methyl-1H-benzo[d]imidazol-6-yl)-1-(4-methoxyphenyl)-7-(2,2,2-trifluoroethoxy)-1,8-naphthyridin-2(1H)-one], the IC50 in assay [1] is at least 1000 nM; in assay [2], under 100 nM; in assay [3] it was under 100 nM; in assay [4], under 100 nM.

As for `COc1ccc(-n2c(=O)c(-c3ccc4nccn4c3)cc3cnc(NCC(F)(F)F)nc32)cc1` [Example 172], the IC50 in assay [1] was at least 1000 nM; in assay [2], 100 to 1000 nM; in assay [3], under 100 nM; in assay [4], under 100 nM.
